Results published in the supplement of paper PMC8882468.

Assays:
Assay in all cases: CTG-3D luminescence at 96 h relative to day-0 seeding control (ratio to day 0); higher = more growth / less cytotoxicity; PDxO 3D drug screen, 96 h, CTG-3D normalised to day-0 seeding control.
HCI-002 = tested on: HCI-002 (organoid from a triple-negative breast cancer xenograft)
HCI-015 = tested on: HCI-015 (organoid from a triple-negative breast cancer xenograft)
HCI-017.E2 = tested on: HCI-017.E2 (organoid from an ER-positive breast cancer xenograft)
HCI-023 = tested on: HCI-023 (organoid from a triple-negative breast cancer xenograft)
HCI-025 = tested on: HCI-025 (organoid from a breast cancer xenograft)
MDA-MB-231 = tested on: MDA-MB-231

Cc1cc(Nc2ncnc3ccc(NC4=NC(C)(C)CO4)cc23)ccc1Oc1ccn2ncnc2c1 [tucatinib]
CTG-3D luminescence at 96 h
Settings | 12.5 pM | 0.00025 µM | 0.005 µM | 0.1 µM | 1 µM | 10 µM | 100 µM | 625 fM
HCI-002, days in culture: 62 | 2.76 | 2.54 | 3.08 | 2.78 | 2.68 | 2.44 | 0.0174 | 2.91
HCI-002, days in culture: 82 | 2.73 | 3.27 | 2.09 | 2.6 | 2.75 | 1.59 | 0.0194 | 2.63
HCI-002, days in culture: 91 | 3.43 | 3.15 | 2.38 | 2.79 | 2.2 | 2.58 | 0.0163 | 3.48
HCI-002, days in culture: 191 | 2.63 | 2.43 | 2.47 | 2.5 | 3.12 | 2.01 | 0.0155 | 2.73
HCI-002, days in culture: 209 | 2.22 | 2.16 | 2.08 | 2.02 | 2.19 | 1.5 | 0.0106 | 2.39
HCI-002, days in culture: 227 | 5.23 | 5.28 | 4.84 | 4.86 | 4.14 | 3.82 | 0.0281 | 5.85
HCI-015, days in culture: 172 | 2.53 | 1.9 | 2.05 | 1.54 | 1.91 | 1.53 | 0.0569 | 2.67
HCI-015, days in culture: 191 | 1.69 | 1.49 | 1.75 | 0.921 | 1.58 | 0.759 | 0.0182 | 1.67
HCI-015, days in culture: 218 | 2.15 | 1.83 | 1.97 | 1.85 | 1.5 | 1.64 | 0.0854 | 1.8
HCI-017.E2, days in culture: 85 | 2.39 | 3.33 | 2.72 | 2.78 | 3.27 | 1.71 | 0.109 | 2.31
HCI-023, days in culture: 111 | 1.15 | 1.13 | 1.06 | 1.2 | 0.941 | 1.06 | 0.00921 | 1.65
HCI-023, days in culture: 128 | 1.78 | 1.62 | 1.59 | 2.03 | 1.5 | 1.59 | 0.0109 | 1.69
HCI-025, days in culture: 172 | 3 | 1.87 | 3.97 | 2.2 | 2.35 | 1.75 | 0.0232 | 2.16
HCI-025, days in culture: 209 | 1.95 | 2.11 | 2.45 | 1.5 | 1.95 | 1.9 | 0.0118 | 1.06
HCI-025, days in culture: 218 | 1.26 | 1.91 | 1.79 | 1.43 | 1.02 | 1.62 | 0.249 | 1.71

CTG-3D luminescence at 96 h
Settings | 12.5 pM | 0.00025 µM | 0.005 µM | 0.1 µM | 1 µM | 10 µM | 100 µM | 625 fM
HCI-017.E2 | 1.74 | 1.98 | 2.09 | 1.95 | 1.79 | 1.413 | 0.0205 | 1.96
MDA-MB-231 | 4.57 | 4.49 | 4.6 | 4.56 | 4.67 | 4.64 | 0.058 | 4.58
